We go through 17 compounds from ChEMBL document CHEMBL2321833, “Design and optimization of selective protein kinase C θ (PKCθ) inhibitors for the treatment of autoimmune diseases” (J Med Chem, 2013).

The target of data set [1] is T1, Protein kinase C theta type (Homo sapiens, UniProt Q04759). Briefly: Inhibition of full-length recombinant PKC theta (unknown origin) using ERMRPRKRQGSVRRRV as substrate after 60 mins by scintillation counting analysis in presence of [gamma-33P]ATP.
The target in data set [2] is Protein kinase C delta type (Homo sapiens, UniProt Q05655). Briefly: Inhibition of PKC delta (unknown origin) using ERMRPRKRQGSVRRRV as substrate after 15 mins by spectrophotometry in presence of ATP.
The target in data set [3] is Protein kinase C alpha type (Homo sapiens, UniProt P17252). The data set is described as follows: Inhibition of PKC alpha (unknown origin) using RRRRRKGSFKRKA as substrate after 15 mins by spectrophotometry in presence of ATP.
Data set [4] addresses T1, Protein kinase C theta type. The data set is described as follows: Inhibition of PKC-theta in human PBMC cells assessed as inhibition of IL-2 after 24 hrs by bead-based FLISA assay. The data set is classed as cell-based.
Data set [5] can be described thus: Oral bioavailability in rat at 10 mg/kg. It counts as ADME, organism-based. As to conditions: in vivo.
The subject of another data set is Blood. The data set is described as follows: Inhibition of PKC theta in human whole blood assessed as IL-2 level after 1 hr by ELISA. The data set is classed as functional, tissue-based.
The nature of data set [6]: Clearance in rat at 3 mg/kg, iv and 10 mg/kg, po. It counts as ADME, organism-based. As to conditions: in vivo.
A short description of data set [7]: Half life in rat at 3 mg/kg, iv and 10 mg/kg, po. It counts as ADME, organism-based. As to conditions: in vivo.

Protein kinase C delta type, sequence (Q05655 whole entry): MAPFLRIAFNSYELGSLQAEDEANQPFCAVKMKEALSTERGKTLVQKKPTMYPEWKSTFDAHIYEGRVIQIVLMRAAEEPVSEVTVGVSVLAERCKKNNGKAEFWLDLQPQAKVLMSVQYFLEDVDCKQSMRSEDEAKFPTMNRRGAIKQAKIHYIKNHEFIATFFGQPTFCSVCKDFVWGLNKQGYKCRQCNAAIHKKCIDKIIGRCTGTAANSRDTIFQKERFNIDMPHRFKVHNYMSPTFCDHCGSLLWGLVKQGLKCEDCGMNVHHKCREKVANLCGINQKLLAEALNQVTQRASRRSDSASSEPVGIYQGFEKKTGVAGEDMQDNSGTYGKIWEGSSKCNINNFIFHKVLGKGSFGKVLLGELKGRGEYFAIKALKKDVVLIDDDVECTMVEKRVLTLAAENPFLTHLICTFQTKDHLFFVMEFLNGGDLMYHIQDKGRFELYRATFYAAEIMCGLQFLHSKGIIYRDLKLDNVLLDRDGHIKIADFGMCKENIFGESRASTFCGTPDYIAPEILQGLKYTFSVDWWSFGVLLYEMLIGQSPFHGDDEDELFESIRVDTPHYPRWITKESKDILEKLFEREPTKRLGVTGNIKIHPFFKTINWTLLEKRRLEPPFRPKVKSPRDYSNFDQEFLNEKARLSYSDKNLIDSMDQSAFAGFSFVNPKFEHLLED
T1 sequence (Q04759 whole entry): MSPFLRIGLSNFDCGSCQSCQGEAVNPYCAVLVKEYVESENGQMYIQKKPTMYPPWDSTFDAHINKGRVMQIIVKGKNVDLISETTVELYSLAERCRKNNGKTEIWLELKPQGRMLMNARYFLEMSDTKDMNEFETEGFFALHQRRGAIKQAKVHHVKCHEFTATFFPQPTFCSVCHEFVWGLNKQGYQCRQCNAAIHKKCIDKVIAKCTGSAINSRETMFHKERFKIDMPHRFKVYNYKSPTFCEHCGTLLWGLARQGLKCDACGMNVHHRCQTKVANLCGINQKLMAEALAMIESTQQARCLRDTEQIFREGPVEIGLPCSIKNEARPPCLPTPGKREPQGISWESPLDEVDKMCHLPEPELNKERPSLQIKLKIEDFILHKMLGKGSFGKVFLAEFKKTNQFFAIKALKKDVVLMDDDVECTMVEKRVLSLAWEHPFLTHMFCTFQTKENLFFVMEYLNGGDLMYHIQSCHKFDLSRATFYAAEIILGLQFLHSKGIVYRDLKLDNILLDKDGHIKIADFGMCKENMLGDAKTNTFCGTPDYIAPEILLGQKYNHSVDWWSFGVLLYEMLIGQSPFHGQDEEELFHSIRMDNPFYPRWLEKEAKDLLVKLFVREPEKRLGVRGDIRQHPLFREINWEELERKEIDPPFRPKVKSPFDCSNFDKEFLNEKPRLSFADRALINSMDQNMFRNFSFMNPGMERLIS

Consider `CC(C)C[C@H]1CN(c2ccc(F)c(-c3n[nH]c4ncccc34)n2)C[C@H](C)N1`, for which the Ki in data set [1] is > 700 nM; in data set [2], > 1250 nM.

For `CC(C)[C@@](C)(O)[C@@H]1CN(c2ccc(C(F)(F)F)c(-c3n[nH]c4ncccc34)n2)CCN1` (racemic), the figures for the Ki in data set [1], in data set [3] and in data set [2] were 20 nM, > 1250 nM and 957 nM, respectively. The IC50 in data set [4] stood at 420 nM.

Regarding `CC(C)C[C@H]1CN(c2ccc(F)c(-c3n[nH]c4ncccc34)n2)CCN1`, the Ki in data set [2] came out at 358 nM.

In the case of `Nc1ncccc1C(=O)c1cccc(N2CCCNCC2)n1`, the Ki in data set [3] was 428 nM.

With `CC(C)[C@](C)(O)[C@H]1CN(c2ccc(F)c(-c3n[nH]c4ncccc34)n2)CCN1`, the Ki in data set [2] is > 1250 nM.

Turning to `CC(C)[C@@](C)(O)[C@@H]1CN(c2nc(-c3n[nH]c4ncccc34)c(F)cc2CO)CCN1`, the Ki in data set [1] is 0.1 nM; in data set [3] it was 205 nM; in data set [2], < 10 nM. For the same compound, the IC50 in data set [4] was 1 nM.

For the compound `c1cc(-c2n[nH]c3ncccc23)nc(N2CCNCC2)c1`, in data set [3], the Ki came to 1230 nM.

Regarding `Fc1ccc(N2CCNCC2)nc1-c1n[nH]c2ncccc12`, the Ki in data set [1] was 60 nM; in data set [3], > 1250 nM; in data set [2], 722 nM.

Take `CC(C)[C@@](C)(O)[C@@H]1CN(c2ccc(F)c(-c3n[nH]c4ncccc34)n2)CCN1`: the bioavailability in data set [5] was found to be 36%. Also, in the data set on Blood, the IC50 came out at 200 nM. In data set [6], this compound returned a clearance of 39 mL/min/kg. In data set [7], this compound gave a half-life of 2.6 h. In addition, the Ki in data set [3] stood at 549 nM; in data set [2], 57 nM.

Turning to `CC(C)C[C@H]1CN(c2ccc(F)c(-c3n[nH]c4ncccc34)n2)C[C@@H](C)N1`, the values for the Ki in data set [1] and in data set [2] were 5 nM and 130 nM, respectively.

Consider `CC(C)C[C@@H]1CN(c2ccc(F)c(-c3n[nH]c4ncccc34)n2)CCN1`, for which the Ki in data set [2] worked out at 792 nM.

On to `CC(C)[C@](C)(O)[C@@H]1CN(c2ccc(F)c(-c3n[nH]c4ncccc34)n2)CCN1`, for which, in data set [2], the Ki is 120 nM.

In the case of `CC(C)[C@@](C)(O)[C@@H]1CN(c2ccc(Cl)c(-c3n[nH]c4ncccc34)n2)CCN1`, the values for the Ki in data set [1], in data set [3] and in data set [2] were 21 nM, 1240 nM and 547 nM, respectively. Besides, the IC50 in data set [4] was 170 nM.

For the compound `CC(C)[C@@](C)(O)[C@@H]1CN(c2nc(-c3n[nH]c4ncccc34)c(F)cc2C#N)CCN1`, the Ki in data set [3] is > 1250 nM.

As for `CC(C)[C@@](C)(O)[C@@H]1CN(c2nc(-c3n[nH]c4ncccc34)c(F)cc2F)CCN1`, the inhibition constant Ki in data set [1] amounted to 0.1 nM; in data set [3] it was 198 nM; in data set [2], 18 nM. In addition, in data set [5], the bioavailability worked out at 30%. The IC50 with Blood came to 80 nM; in data set [4], 2 nM. The clearance in data set [6] came to 9.5 mL/min/kg. This compound gave a half-life in data set [7] of 1.7 h.

Take `CC(C)[C@@](C)(O)[C@@H]1CN(c2nc(-c3n[nH]c4ncccc34)c(F)cc2O)CCN1`: the results for the Ki in data set [1], in data set [3] and in data set [2] were 0.1 nM, 56 nM and < 10 nM, respectively. In addition, the IC50 in data set [4] came to 4 nM.

As to `CC(C)[C@@](C)(O)[C@H]1CN(c2ccc(F)c(-c3n[nH]c4ncccc34)n2)CCN1`, in data set [2], the Ki was > 1250 nM.

By Ki is commonly meant the dissociation constant of the complex between target and ligand, obtained from inhibition or displacement. Usually IC50 stands for the concentration that inhibits the measured activity by half. Broadly, the bioavailability is the share of a dose that reaches the circulation, judged against a reference dose that is usually intravenous. The low end stands for poor availability, the high end for good availability. By half-life is commonly meant the time in which the quantity being followed falls by half.
